Key:
[1] = acute toxicity in the mouse (LD50, SPEARMAN-KARBER method); conditions: in vivo
Experimental: (§1) The results of the study of the acute toxicity were as follows, the tests having been carried out on the mouse and rat, whilst the product was administered intravenously, subcutaneously and by oesophageal tube. The doses studied were administered in a volume of 1 ml/100 g of body weight, whilst each dose was administered to 5 males and 5 females; the LD 50 was investigated using the SPEARMAN-KARBER method.

[2] = tested on: "spatial disorientation" syndrome; experiment: effect on a "spatial disorientation" syndrome in the rat (aquatic labyrinth after electric shock); assay type: in vivo, rat (Wistar AF-Han)
Experimental: This study was carried out using male rats of the Wistar AF-Han EOPS strains weighing about 160 g and about 6 to 7 weeks old.
After being guided through once by the experimenter, the rats are first of all subjected to 4 tests in 2 days in an aquatic labyrinth described by GIURGEA and MOURAVIEFFLESUISSE (J. Pharmacol. PARIS, 1972, 3, 1, 17-30).
On the 3rd day, the rats are subjected to a supramaximal electric shock delivered by a Neurovac controlled by a CRC OC 342 oscillograph; the electric shock has the following characteristics: 100 Hz, 0.5 ms, 1 second, 60 volts.
After passing through the labyrinth 20 minutes after the electric shock, the rats are given their treatment by oesophageal tube. Two tests are carried out 40 and 100 minutes after treatment, i.e. 60 and 120 minutes after the electric shock, and the time taken to pass through the labyrinth by each animal is timed; the number of errors is also noted.
The rats are put on a diet of water for 18 hours after passing through for the 4th time. The compound is administered by intragastric route in a volume of 5 ml/kg.
time taken to leave the aquatic labyrinth;
average number of errors made in an effort to leave the labyrinth;
percentage of "normal" subjects, i.e. rats passing through the labyrinth with only 0-4 errors.

[3] = stability in acidic medium; assay type: physicochemical
[4] = acute toxicity in the rat (LD50, SPEARMAN-KARBER method); conditions: in vivo
Experimental: as §1

[5] = tested on: cortical electrogenesis disrupted by the presence of a unilateral cerebral oedema; experiment: effect on cortical electrogenesis disrupted by unilateral cerebral oedema in the unanaesthetised rabbit; assay type: in vivo
Experimental: 48 hours before use, the animal's cranium is exposed and stainless steel electrodes are screwed on so as to contact the dura mater on the frontal and occipital lobes on both sides of the median and transverse sutures. The electrocorticogram is recorded on a REEGA MINI HUIT TR electroencephalograph mounted transversely and longitudinally, whilst a 4th channel serves to record the electrocardiogram. Moreover, a flap of bone 7 to 10 mm in diameter was removed on one side, and this operation was not found, 48 hours later, to have caused any appreciable disruption of the electrical activity of the cortex.
An oedema was then produced by removing the dura mater and arachnoid; it usually takes the form of a hernia of the cortex. The treatment is then given and the electrocorticographic trace is monitored every hour during and after administration of the test products, then 24 and 48 hours later.
The action of the test products is assessed on the basic electrogenesis, particularly on the presence of slow waves and on the signs of cortical reactivity to two exteroceptive stimuli: a receptive stimulus (electrical tone lasting 2 seconds) and a nociceptive stimulation of the nerve endings in the skin by pinching the dorsal skin using KOCHER forceps.
The compounds are administered by either intravenous or intragastric route.

[6] = in vivo
From the text: 2. the chronic toxicity (rats and dogs),
4. the local and general tolerance,
5. the possible teratogenic effects, […]

low-pressure hypoxia = experiment: mortality caused by low-pressure hypoxia in the mouse; assay type: in vivo, mouse (NMRI-Han); parameters: survival time, average and standard deviation: unit not given here
Experimental: An artificial altitude was created by placing the mouse in a sealed box and progressively reducing the pressure to 190 mm of mercury (equivalent to about 10,000 meters altitude) using a CEM-type pump, so that the desired altitude is obtained in 1 minute 10 seconds on average. A stopwatch is then started and the exact time when the chest movements cease is noted. Any mouse whose survival time is more than twice the average value noted in the corresponding "solvent control" series is regarded as protected.
The ED50 was calculated from the percentage of "protected" mice using the graphical method indicated by LITCHFIELD and WILCOXON (J. Pharm. Exp. Ther., 1949, 96, 99-113).
The compound was administered by intraperitoneal route 20 minutes before the altitude is artifically created; whatever the dose, the volume injected was always equal to 20 ml/kg.
The effects were also examined after administration by oesophageal tube 60 minutes before the test, whilst the volume administered is always 20 ml/kg.
The entire study was carried out on adult male EOPS mice (4 to 5 weeks old) of the NMRI-Han strain, divided into random test groups after being fed only water for 18 hours.

[7] = 50 mg/kg group, 20 minutes after electric shock (before treatment)
[8] = 50 mg/kg group, before electric shock (before treatment)
[9] = 50 mg/kg intragastric, 60 minutes after electric shock (40 minutes after treatment)
[10] = 50 mg/kg intragastric, 120 minutes after electric shock (100 minutes after treatment)
[11] = 100 mg/kg group, 20 minutes after electric shock (before treatment)
[12] = 100 mg/kg group, before electric shock (before treatment)
[13] = 100 mg/kg intragastric, 60 minutes after electric shock (40 minutes after treatment)
[14] = 100 mg/kg intragastric, 120 minutes after electric shock (100 minutes after treatment)

SMILES: CCC12CCCN3CCC4(C(=Nc5ccccc54)C(O)(C(=O)OC)C1)C32 (single isomer, unassigned) [the compound]
- LD50 at 72 h ([1]; iv): 86 mg/kg
- LD50 at 72 h ([1]; po): 860 mg/kg
- LD50 at 72 h ([1]; sc): 176 mg/kg
- average number of errors [2, 7]: 23.4
- average time taken to leave the aquatic labyrinth [2, 7]: 186 s
- percentage of "normal" subjects (0-4 errors) [2, 7]: 0 percentage
- average number of errors [2, 8]: 3.4
- average time taken to leave the aquatic labyrinth [2, 8]: 39 s
- percentage of "normal" subjects (0-4 errors) [2, 8]: 80 percentage
- average number of errors [2, 9]: 15.2
- average time taken to leave the aquatic labyrinth [2, 9]: 96 s
- percentage of "normal" subjects (0-4 errors) [2, 9]: 28 percentage
- average number of errors [2, 10]: 8.9
- average time taken to leave the aquatic labyrinth [2, 10]: 68 s
- percentage of "normal" subjects (0-4 errors) [2, 10]: 52 percentage
- average number of errors [2, 11]: 22.6
- average time taken to leave the aquatic labyrinth [2, 11]: 168 s
- percentage of "normal" subjects (0-4 errors) [2, 11]: 0 percentage
- average number of errors [2, 12]: 3.4
- average time taken to leave the aquatic labyrinth [2, 12]: 37 s
- percentage of "normal" subjects (0-4 errors) [2, 12]: 77 percentage
- average number of errors [2, 13]: 13.9
- average time taken to leave the aquatic labyrinth [2, 13]: 103 s
- percentage of "normal" subjects (0-4 errors) [2, 13]: 17 percentage
- average number of errors [2, 14]: 8.9
- average time taken to leave the aquatic labyrinth [2, 14]: 80 s
- percentage of "normal" subjects (0-4 errors) [2, 14]: 47 percentage
- recovery of memory ([2]; oral route, conclusion): accelerates the recovery of memory already instilled
- stability in an acidic medium [3]: unstable in an acidic medium
- LD50 at 72 h ([4]; iv): 63.4 mg/kg
- LD50 at 72 h ([4]; po): 777 mg/kg
- LD50 at 72 h ([4]; sc): 126 mg/kg
- effect on the development of electrogenesis in the cortex disrupted by unilateral cerebral oedema ([5]; conclusion, unanaesthetised rabbit): beneficial effect
- increase of the value of the "R" index ([5]; intragastric, 5 mg/kg): ~30%
- value of the "R" index ([5]; intragastric, 10 mg/kg, during the 8 hours following ingestion): a clear improvement in the value of the "R" index
- activity with regard to oedema symptoms (spontaneous electrogenesis and duration of alert reactions) ([5]; intravenous, 0.5 mg, 1 mg and 2 mg/kg): has a therapeutic acitivity with regard to oedema symptoms
- tolerance [6]: tolerated well both orally and by parenteral or intramuscular route, without causing local or general reactions
- survival time, average and standard deviation (low-pressure hypoxia; 2.5 mg/kg i.p., 20 minutes before altitude): 88.4 ± 7.01
- survival time, average and standard deviation (low-pressure hypoxia; 5.0 mg/kg i.p., 20 minutes before altitude): 108.5 ± 20.22
- survival time, average and standard deviation (low-pressure hypoxia; 10.0 mg/kg i.p., 20 minutes before altitude): 155.7 ± 30.42
- survival time, average and standard deviation (low-pressure hypoxia; 15 mg/kg i.p., 20 minutes before altitude): 179.6 ± 32.07
- survival time, average and standard deviation (low-pressure hypoxia; 20 mg/kg i.p., 20 minutes before altitude): 275.4 ± 39.77
- survival time, average and standard deviation (low-pressure hypoxia; 30 mg/kg i.p., 20 minutes before altitude): 308.5 ± 35.65
- survival time, average and standard deviation (low-pressure hypoxia; 50 mg/kg p.o., 60 minutes before test): 122.6 ± 11.75
- survival time, average and standard deviation (low-pressure hypoxia; 100 mg/kg p.o., 60 minutes before test): 186.8 ± 25.70
- survival time, average and standard deviation (low-pressure hypoxia; 150 mg/kg p.o., 60 minutes before test): 179.7 ± 20.23
- survival time, average and standard deviation (low-pressure hypoxia; 200 mg/kg p.o., 60 minutes before test): 287.0 ± 25.58
- survival time, average and standard deviation (low-pressure hypoxia; 250 mg/kg p.o., 60 minutes before test): 306.5 ± 29.46
- survival time, average and standard deviation (low-pressure hypoxia; 300 mg/kg p.o., 60 minutes before test): 281.6 ± 30.61
- protection from the toxic effects of artificial altitude (low-pressure hypoxia; regardless of the route of administration): makes it possible to protect the mouse from the toxic effects of artificial altitude

Reference: US4152519A, “16-Hydroxy aspidospermidines and a process for their production” (Parcor, priority 1976, dated 1979)
